PMC13249053, “Mechanism of auranofin toxicity: Inhibition of tetrahydrobiopterin metabolism” (Toxicology and applied pharmacology, 2025)
Several values for one entry are separate records, joined by “and”; a condition that tells them apart may be missing. Identical values can stand only once. Like-named read-outs stand apart in the source and are kept apart here.

Key:
[1] = target: T1, sepiapterin reductase (SPR) (Homo sapiens, UniProt P35270); assay: SPR enzyme activity in HaCaT cell lysates (BH2 formation from sepiapterin, HPLC); type: biochemical; details: BH2 formation from sepiapterin by HPLC, read-out: IC50, inhibition of SPR in HaCaT cell lysates
T1 construct: endogenous in cells; host or cells: HaCaT, Jurkat, BeWo, SKNMC, CX-1
Procedure: (§1) The growth medium was then removed and the cells incubated with growth medium containing 100 μM sepiapterin. […] BH2 and BH4 were then analyzed on a Jasco high-performance liquid chromatography system (Easton, MD) fitted with a Maxsil-10 C18 column (250 × 4 mm; Phenomenex, Torrance, CA). […] Cell viability following drug treatments was greater than 95 %.
Fig. 4. Effects of auranofin on sepiapterin reductase (SPR) enzyme activity in HaCaT lysates. Lysates were assayed for SPR enzyme activity in control reaction mixes or reaction mixes containing increasing concentrations of auranofin (left panel). SPR activity was determined by decreases in BH2 formation from sepiapterin as measured by HPLC (right panel).

SPR [2] = target: T2, SPR (Rattus norvegicus, UniProt P18297); assay: Cellular SPR activity: BH2 formation from sepiapterin in the presence of methotrexate, PC12 cells; type: cell-based; details: PC12 (rat pheochromocytoma); with methotrexate
T2 construct: endogenous in cells; host or cells: PC12
Procedure: as §1

SPR [3] = target: SPR (Homo sapiens, UniProt P35270); assay: Sepiapterin reduction by recombinant SPR (absorbance at 420 nm); type: biochemical; design: made in house
Procedure: Sepiapterin reductase activity was assayed by measuring decreases in sepiapterin absorbance at 420 nm as described by Kato ([Kato, 1971]) with some modifications. Briefly, standard reaction mixes contained 100 mM potassium phosphate buffer, pH 7.0, 100 μM NADPH, 50 μM sepiapterin and 1 μg of enzyme protein in a final volume of 0.2 ml. Changes in absorbance of sepiapterin were monitored using a Spectramax M5 microplate reader (Molecular Devices, Sunnyvale, CA). […] Chemical redox cycling by SPR was assayed by measuring the formation of superoxide anion in the presence of menadione as previously described ([Yang et al., 2013]). […] Superoxide anion was measured spectrophotometrically by the reduction of acetylated cytochrome c at 550 nm. DHFR activity was measured as previously described ([Whitsett et al., 2013]) with some modifications. […] Enzyme activity was monitored by decreases in absorbance of NADPH at 340 nm using a microplate reader. […]
Fig. 5. […] SPR was measured in enzyme assays by decreases in sepiapterin absorbance at 420 nm as described in the Materials and Methods. DHFR activity in enzyme assays was measured by decreases in absorbance of NADPH at 340 nm. […] Redox cycling was measured spectrophotometrically by the reduction of acetylated cytochrome c at 550 nm during the formation of superoxide anion in enzyme assays in the presence of 100 μM menadione.

cells = assay: Cell viability (alamarBlue) following drug treatments; details: cells pretreated with auranofin and/or methotrexate for 2 h, then sepiapterin 3 h
DHFR = target: T3, DHFR (Homo sapiens, UniProt P00374); assay: Cellular DHFR activity: BH4 formation from BH2, human cell lines; type: cell-based; design: endogenous in cells; host or cells: HaCaT, Jurkat, BeWo, SKNMC, CX-1
T3 sequence (P00374 1-187): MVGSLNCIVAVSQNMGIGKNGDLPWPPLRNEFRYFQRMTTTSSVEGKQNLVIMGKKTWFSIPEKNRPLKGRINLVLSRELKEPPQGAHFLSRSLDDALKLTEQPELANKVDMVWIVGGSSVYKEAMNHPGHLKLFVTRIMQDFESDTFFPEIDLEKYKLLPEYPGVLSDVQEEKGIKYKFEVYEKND
Procedure: Metabolic products of sepiapterin (BH2 and BH4) in intact cells and cell lysates were measured using HPLC as previously described ([Ferre and Naylor, 1988]) with some modifications ([Yang et al., 2013]; [Yang et al., 2015]). Briefly, cells in six-well culture dishes were grown until 60–70 % confluent (~1 × 10^6 cells/well). The growth medium was then removed and the cells incubated with growth medium containing 100 μM sepiapterin. After 3 h, cells were harvested, centrifuged (1500 g, 10 min), and pellets suspended in 200 μl of lysis buffer (50 mM Tris-HCl, pH 7.4, 137 mM NaCl, 0.5 % Nonidet P-40 (NP-40), 0.5 mM EDTA) for 20 min on ice. […] Thirty min later, 50 μl of 1 M H3PO4 was added to the supernatants and the precipitated proteins removed by centrifugation (15,000 g, 3 min). After standing for 10 min at room temperature, excess iodine was reduced by the addition of 25 μl of 57 mM ascorbic acid to the reaction mix. BH2 and BH4 were then analyzed on a Jasco high-performance liquid chromatography system (Easton, MD) fitted with a Maxsil-10 C18 column (250 × 4 mm; Phenomenex, Torrance, CA). Fluorescence was monitored using a Jasco FP-2020 spectrofluorometer with excitation and emission wavelengths set at 362 and 435 nm, respectively ([Yang et al., 2013]; [Yang et al., 2015]).
Fig. 8. […] DHFR enzyme activity in the cells was assayed by the metabolism of BH2 to BH4. Upper panels. HaCaT cells were treated with control medium or medium containing increasing concentrations of auranofin for 2 h followed by the addition of 200 μM BH2. After an additional 3 h, cells were rinsed with PBS and BH2 and BH4 analyzed by HPLC as described in the Materials and Methods. Lower panels. […] Cells were treated with the drug for increasing periods of time (0–2 h) followed by 200 μM BH2. After an additional 3 h, cells were rinsed with PBS and analyzed for BH2 and BH4 content.

SPR (Homo sapiens, UniProt P35270), sequence (P35270 whole entry): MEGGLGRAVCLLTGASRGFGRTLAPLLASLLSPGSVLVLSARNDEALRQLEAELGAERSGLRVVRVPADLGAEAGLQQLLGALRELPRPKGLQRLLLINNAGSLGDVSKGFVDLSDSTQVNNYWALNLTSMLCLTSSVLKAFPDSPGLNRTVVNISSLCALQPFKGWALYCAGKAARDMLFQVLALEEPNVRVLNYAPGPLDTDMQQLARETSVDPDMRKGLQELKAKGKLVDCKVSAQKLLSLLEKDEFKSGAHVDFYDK
T1 sequence (P35270 whole entry): as above
T2 sequence (P18297 whole entry): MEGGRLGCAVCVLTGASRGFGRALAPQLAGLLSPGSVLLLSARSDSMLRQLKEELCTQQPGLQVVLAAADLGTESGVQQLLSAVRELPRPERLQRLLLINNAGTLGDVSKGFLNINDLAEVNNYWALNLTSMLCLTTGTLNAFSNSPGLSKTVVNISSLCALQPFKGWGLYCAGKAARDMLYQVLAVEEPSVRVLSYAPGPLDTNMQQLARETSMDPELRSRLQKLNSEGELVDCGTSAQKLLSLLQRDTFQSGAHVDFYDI

SMILES: CC[PH](CC)(CC)[Au][S][C@@H]1O[C@H](COC(C)=O)[C@@H](OC(C)=O)[C@H](OC(C)=O)[C@H]1OC(C)=O [auranofin, 2,3,4,6-tetra-O-acetyl-1-thio-β-D-glucopyranosato-S-triethyl phosphine gold]
- IC50 [1]: 1.8 µM
- IC50 (SPR [2]): 1 ± 0.11 µM
- recombinant SPR activity versus control (SPR [3]; 10 μM auranofin, n = 3, P < 0.05): Significantly different
- IC50 (SPR [3]; 50 μM sepiapterin, 100 μM NADPH, pH 7.0, auranofin added 10 min before, read-out: IC50, inhibition of sepiapterin reduction by recombinant SPR): 1.5 µM and 1.53 µM
- cell viability following drug treatments (cells): greater than 95%
- IC50 (DHFR; BeWo (human choriocarcinoma), BH4 formation from BH2, read-out: DHFR IC50, BeWo cells): 3.9 ± 0.15 µM
- IC50 (DHFR; CX-1 (human colon adenocarcinoma), BH4 formation from BH2, read-out: DHFR IC50, CX-1 cells): 7.3 ± 0.1 µM
- IC50 (DHFR; HaCaT (human keratinocytes), auranofin 2 h, then 200 μM BH2 3 h, read-out: DHFR IC50, HaCaT cells): 6.3 ± 0.75 µM
- time of pretreatment to maximal inhibition of cellular DHFR (DHFR; HaCaT cells, 20 μM auranofin): 2 h
- IC50 (DHFR; Jurkat (human leukemia), BH4 formation from BH2, read-out: DHFR IC50, Jurkat cells): 5.4 ± 0.07 µM
- IC50 (DHFR; SKNMC (human neuroblastoma), BH4 formation from BH2, read-out: DHFR IC50, SKNMC cells): 15.2 ± 0.53 µM
